Values quoted from earlier work, collected in patent US20030099708A1, “Printing or dispensing a suspension such as three-dimensional printing of dosage forms” (Therics, Inc, priority 2001, published 2003).

Conditions: statement in words, no test described

## CC[C@@]1(O)C(=O)OCc2c1cc1n(c2=O)Cc2cc3ccccc3nc2-1 [camptothecin]
  solubility in water: substantially insoluble
